Data published in US7135466B2 (Kirin Beer Kabushiki Kaisha, priority 1999, dated 2006).
pIC50: −log10 of the molar value.

Molecular target: T1, c-kit (Homo sapiens, UniProt P10721)
T1 construct: MO7e (human megakaryocytic leukemia cell line) which had been arrested for 20 hr; endogenous in cells; host or cells: MO7e human megakaryocytic leukemia cell line
Test: Inhibitory activity against c-kit autophosphorylation (MO7e cells, h-SCF)
Format: cell-based
Settings: MO7e cells, h-SCF stimulation; read-out: c-kit IC50
Protocol: Inhibitory Activity Against c-kit Autophosphorylation
MO7e (human megakaryocytic leukemia cell line) which had been arrested for 20 hr was seeded into 96 well plates at an amount of 2×10^5 per well. A solution of a test compound in DMSO was added, and a reaction was then allowed to proceed for one hr. Thereafter, the cells were stimulated by 50 ng/ml of h-SCF for 5 min, followed by replacement with lysate buffer to solubilize the cells.
Next, the solubilized cell sap was transferred to a 96-well plate with an anti-phosphotyrosine antibody (PY-20) previously immobilized thereon, and a reaction was allowed to proceed. Thereafter, the cells were reacted with an anti-c-kit antibody (c-19, Santa Cruz) as a primary antibody and were labelled with GAR (anti-rabbit IgG, horseradish peroxidase, Amersham) as a secondary antibody. Color development was then carried out in a peroxidase color development kit (Sumitomo Bakelite Co., Ltd.), and the absorbance was measured at a wavelength of 450 nm.

T1 sequence (P10721 26-976): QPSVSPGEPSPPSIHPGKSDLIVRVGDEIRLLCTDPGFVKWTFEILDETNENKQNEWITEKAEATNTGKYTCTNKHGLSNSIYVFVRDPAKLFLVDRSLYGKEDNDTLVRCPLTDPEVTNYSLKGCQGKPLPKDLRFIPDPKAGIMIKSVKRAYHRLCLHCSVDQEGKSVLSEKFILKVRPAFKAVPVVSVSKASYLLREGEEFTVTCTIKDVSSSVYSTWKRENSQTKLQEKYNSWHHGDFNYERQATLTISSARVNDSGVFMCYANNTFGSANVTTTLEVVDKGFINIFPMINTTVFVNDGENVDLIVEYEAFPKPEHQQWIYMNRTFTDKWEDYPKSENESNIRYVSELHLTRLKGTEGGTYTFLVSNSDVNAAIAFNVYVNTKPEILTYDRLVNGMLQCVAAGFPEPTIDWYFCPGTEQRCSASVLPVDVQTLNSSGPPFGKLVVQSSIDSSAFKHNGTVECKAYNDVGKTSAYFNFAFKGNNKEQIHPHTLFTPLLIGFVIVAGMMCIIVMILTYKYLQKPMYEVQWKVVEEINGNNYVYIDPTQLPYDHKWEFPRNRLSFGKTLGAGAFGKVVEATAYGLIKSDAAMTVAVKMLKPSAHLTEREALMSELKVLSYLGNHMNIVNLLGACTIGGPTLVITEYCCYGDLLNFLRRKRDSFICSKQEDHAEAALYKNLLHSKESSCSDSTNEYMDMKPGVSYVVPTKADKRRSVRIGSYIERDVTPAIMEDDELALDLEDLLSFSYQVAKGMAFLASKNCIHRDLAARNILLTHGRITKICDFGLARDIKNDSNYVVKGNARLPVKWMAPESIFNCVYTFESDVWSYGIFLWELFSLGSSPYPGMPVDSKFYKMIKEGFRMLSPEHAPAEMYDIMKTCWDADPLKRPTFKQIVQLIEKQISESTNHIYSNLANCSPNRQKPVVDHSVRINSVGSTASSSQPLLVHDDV

| SMILES | pIC50 |
| --- | --- |
| COc1cc2ncnc(Oc3ccc(SCCCCOc4ccccc4F)cc3)c2cc1OC [Example 848, 4-(4-{[4-(2-Fluorophenoxy)butyl]sulfanyl}phenoxy)-6,7-dimethoxyquinazoline] | 6.03 |
| COc1cc2ncnc(Oc3ccc(SCCOc4ccccc4F)cc3)c2cc1OC [Example 849, 4-(4-{[2-(2-Fluorophenoxy)ethyl]sulfanyl}phenoxy)-6,7-dimethoxyquinazoline] | 6.12 |
| COc1cc2ncnc(Oc3ccc(SCCOc4cccc(C)c4)cc3)c2cc1OC [Example 850, 6,7-Dimethoxy-4-(4-{[2-(3-methylphenoxy)ethyl]sulfanyl}phenoxy)quinazoline] | 6.56 |
| COc1cc2nccc(Oc3ccc(NCCOc4ccccc4C)cc3)c2cc1OC [Example 852, N-{4-[(6,7-Dimethoxy-4-quinolyl)oxy]phenyl}-N-[2-(2-methylphenoxy)ethyl]amine] | 6.75 |
| COc1cc2nccc(Oc3ccc(NCCOc4c(Cl)cccc4Cl)cc3)c2cc1OC [Example 854, N-[2-(2,6-Dichlorophenoxy)ethyl]-N-{4-[(6,7-dimethoxy-4-quinolyl)oxy]phenyl}amine] | 6.50 |
| COc1cc2nccc(Oc3ccc(NCCOc4c(C)cccc4C)cc3)c2cc1OC [Example 855, N-{4-[(6,7-Dimethoxy-4-quinolyl)oxy]phenyl}-N-[2-(2,6-dimethylphenoxy)ethyl]amine] | 6.40 |
| COc1cc2nccc(Oc3ccc(NCCOc4c(OC)cccc4OC)cc3)c2cc1OC [Example 856, N-[2-(2,6-Dimethoxyphenoxy)ethyl]-N-{4-[(6,7-dimethoxy-4-quinolyl)oxy]phenyl}amine] | 6.59 |
| COc1cc2nccc(Oc3ccc(NCCOc4c(F)cccc4F)cc3)c2cc1OC [Example 857, N-[2-(2,6-Difluorophenoxy)ethyl]-N-{4-[(6,7-dimethoxy-4-quinolyl)oxy]phenyl}amine] | 6.71 |
| COc1cc2nccc(Oc3ccc(NCCOc4ccc(Cl)cc4)cc3)c2cc1OC [Example 859, N-[2-(4-Chlorophenoxy)ethyl]-N-{4-[(6,7-dimethoxy-4-quinolyl)oxy]phenyl}amine] | 6.89 |
| CCc1ccccc1OCCNc1ccc(Oc2ccnc3cc(OC)c(OC)cc23)cc1 [Example 861, N-{4-[(6,7-Dimethoxy-4-quinolyl)oxy]phenyl}-N-[2-(2-ethylphenoxy)ethyl]amine] | 6.88 |
| COc1cc2ncnc(Oc3ccc(NCCOc4ccccc4C)cc3)c2cc1OC [Example 862, N-{4-[(6,7-Dimethoxy-4-quinazolinyl)oxy]phenyl}-N-[2-(2-methylphenoxy)ethyl]amine] | 6.03 |
| COc1cc2nccc(Oc3ccc(NCCOc4cc(Cl)ccc4Cl)cc3)c2cc1OC [Example 865, N-[2-(2,5-Dichlorophenoxy)ethyl]-N-{4-[(6,7-dimethoxy-4-quinolyl)oxy]phenyl}amine] | 6.92 |
| COc1cc2nccc(Oc3ccc(NCCOc4ccc(F)cc4)cc3)c2cc1OC [Example 866, N-{4-[(6,7-Dimethoxy-4-quinolyl)oxy]phenyl}-N-[2-(4-fluorophenoxy)ethyl]amine] | 6.90 |
| COc1cc2nccc(Oc3ccc(N(C)CCOc4ccc(F)cc4)cc3)c2cc1OC [Example 867, N-{4-[(6,7-Dimethoxy-4-quinolyl)oxy]phenyl}-N-[2-(4-fluorophenoxy)ethyl]-N-methylamine] | 6.72 |
| COc1cc2ncnc(Oc3ccc(NCCOc4ccccc4O)cc3)c2cc1OC [Example 874, 2-(2-{4-[(6,7-Dimethoxy-4-quinazolinyl)oxy]anilino}ethoxy)phenol] | 6.82 |
| COc1cc2nccc(Oc3ccc(NCCOc4ccccc4C)cc3C)c2cc1OC [Example 876, N-{4-[(6,7-Dimethoxy-4-quinolyl)oxy]-3-methylphenyl}-N-[2-(2-methylphenoxy)ethyl]amine] | 6.62 |
| COc1cc2nccc(Oc3ccc(NCCOc4ccccc4Cl)cc3C)c2cc1OC [Example 877, N-[2-(2-Chlorophenoxy)ethyl]-N-{4-[(6,7-dimethoxy-4-quinolyl)oxy]-3-methylphenyl}amine] | 6.66 |
| COc1cc2nccc(Oc3ccc(NC(=S)NC(=O)c4ccccc4)cc3)c2cc1OC [Example 897, N-Benzoyl-N′-{4-[(6,7-dimethoxy-4-quinolyl)oxy]phenyl}thiourea] | 6.03 |
| COc1cc2nccc(Oc3ccc(NC(=S)NC(=O)c4ccccc4Cl)cc3)c2cc1OC [Example 898, N-(2-Chlorobenzoyl)-N′-{4-[(6,7-dimethoxy-4-quinolyl)oxy]phenyl}thiourea] | 6.20 |
| COc1cc2nccc(Oc3ccc(NC(=S)NC(=O)c4ccccc4Br)cc3)c2cc1OC [Example 900, N-(2-Bromobenzoyl)-N′-{4-[(6,7-dimethoxy-4-quinolyl)oxy]phenyl}thiourea] | 6.43 |
| COc1cc2nccc(Oc3ccc(NC(=S)NC(=O)c4ccccc4C(F)(F)F)cc3)c2cc1OC [Example 902, N-{4-[(6,7-Dimethoxy-4-quinolyl)oxy]phenyl}-N′-[2-(trifluoromethyl)benzoyl]thiourea] | 6.52 |
| COc1cc2nccc(Oc3ccc(NC(=S)NC(=O)c4ccccc4Br)c(F)c3)c2cc1OC [Example 907, N-(2-Bromobenzoyl)-N′-{4-[(6,7-dimethoxy-4-quinolyl)oxy]-2-fluorophenyl}thiourea] | 6.24 |

The remaining lines, values ahead:

| pIC50 | SMILES |
| --- | --- |
| 7.12 | COc1cc2nccc(Oc3ccc(NCCOc4ccc(Cl)cc4Cl)cc3)c2cc1OC [Example 851, N-[2-(2,4-Dichlorophenoxy)ethyl]-N-{4-[(6,7-dimethoxy-4-quinolyl)oxy]phenyl}amine] |
| 6.99 | COc1cc2nccc(Oc3ccc(NCCOc4ccccc4OC)cc3)c2cc1OC [Example 853, N-{4-[(6,7-Dimethoxy-4-quinolyl)oxy]phenyl}-N-[2-(2-methoxyphenoxy)ethyl]amine] |
| 6.99 | COc1cc2nccc(Oc3ccc(NCCOc4cc(C)cc(C)c4)cc3)c2cc1OC [Example 858, N-{4-[(6,7-Dimethoxy-4-quinolyl)oxy]-phenyl}-N-[2-(3,5-dimethylphenoxy)ethyl]amine] |
| 7.12 | COc1cc2nccc(Oc3ccc(NCCOc4cccc(Cl)c4)cc3)c2cc1OC [Example 860, N-[2-(3-Chlorophenoxy)ethyl]-N-{4-[(6,7-dimethoxy-4-quinolyl)oxy]phenyl}amine] |
| 7.51 | COc1ccc(OCCNc2ccc(Oc3ccnc4cc(OC)c(OC)cc34)cc2)cc1 [Example 863, N-{4-[(6,7-Dimethoxy-4-quinolyl)oxy]phenyl}-N-[2-(4-methoxyphenoxy)ethyl]amine] |
| 7.49 | CCc1ccc(OCCNc2ccc(Oc3ccnc4cc(OC)c(OC)cc34)cc2)cc1 [Example 864, N-{4-[(6,7-Dimethoxy-4-quinolyl)oxy]phenyl}-N-[2-(4-ethylphenoxy)ethyl]amine] |
| 7.15 | COc1cc2nccc(Oc3ccc(NCCOc4ccccc4Cl)cc3)c2cc1OC [Example 868, N-[2-(2-Chlorophenoxy)ethyl]-N-{4-[(6,7-dimethoxy-4-quinolyl)oxy]phenyl}amine] |
| 7.10 | COc1cc2nccc(Oc3ccc(NCCOc4ccccc4)cc3)c2cc1OC [Example 869, N-{4-[(6,7-Dimethoxy-4-quinolyl)oxy]phenyl}-N-(2-phenoxyethyl)amine] |
| 7.32 | COc1cc2nccc(Oc3ccc(NCCOc4ccc(C)cc4)cc3)c2cc1OC [Example 870, N-{4-[(6,7-Dimethoxy-4-quinolyl)oxy]phenyl}-N-[2-(4-methylphenoxy)ethyl]amine] |
| 7.37 | COc1cc2nccc(Oc3ccc(NCCOc4cccc(C)c4)cc3)c2cc1OC [Example 871, N-{4-[(6,7-Dimethoxy-4-quinolyl)oxy]phenyl}-N-[2-(3-methylphenoxy)ethyl]amine] |
| 7.49 | COc1cc2nccc(Oc3ccc(NCCOc4ccccc4O)cc3)c2cc1OC [Example 872, 2-(2-{4-[(6,7-Dimethoxy-4-quinolyl)oxy]anilino}ethoxy)phenol] |
| 7.16 | COc1cc2ncnc(Oc3ccc(NCCOc4ccccc4)cc3)c2cc1OC [Example 873, N-{4-[(6,7-Dimethoxy-4-quinazolinyl)oxy]phenyl}-N-(2-phenoxyethyl)amine] |
| 6.94 | COc1cc2nccc(Oc3ccc(NCCOc4ccccc4)cc3C)c2cc1OC [Example 875, N-{4-[(6,7-Dimethoxy-4-quinolyl)oxy]-3-methylphenyl}-N-(2-phenoxyethyl)amine] |

Same assay, conditions: Mo7e, figure in parentheses in −( ); at 1000 nM

| inhibition at 1 µM | SMILES |
| --- | --- |
| 27% | COc1cc2nccc(Oc3ccc(NC(=S)NC(=O)c4ccccc4OC)cc3)c2cc1OC [Example 901, N-{4-[(6,7-Dimethoxy-4-quinolyl)oxy]phenyl}-N′-(2-methoxybenzoyl)thiourea] |
| 34% | COc1cc2nccc(Oc3ccc(NC(=S)NC(=O)c4ccccc4)c(F)c3)c2cc1OC [Example 903, N-Benzoyl-N′-{4-[(6,7-dimethoxy-4-quinolyl)oxy]-2-fluorophenyl}thiourea] |
| 46% | COc1cc2nccc(Oc3ccc(NC(=S)NC(=O)c4ccccc4C)c(F)c3)c2cc1OC [Example 904, N-{4-[(6,7-Dimethoxy-4-quinolyl)oxy]-2-fluorophenyl}-N′-(2-methylbenzoyl)thiourea] |
| 29% | COc1cc2nccc(Oc3ccc(NC(=S)NC(=O)c4ccccc4F)c(F)c3)c2cc1OC [Example 906, N-{4-[(6,7-Dimethoxy-4-quinolyl)oxy]-2-fluorophenyl}-N′-(2-fluorobenzoyl)thiourea] |
| 32% | COc1cc2nccc(Oc3ccc(NC(=S)NC(=O)c4ccccc4OC)c(F)c3)c2cc1OC [Example 909, N-{4-[(6,7-Dimethoxy-4-quinolyl)oxy]-2-fluorophenyl}-N′-(2-methoxybenzoyl)thiourea] |
